# Laboratory results: the supplement of paper PMC10307832
# Assays:
# Experiment in all cases: relative viability (nuclei count vs DMSO), 5 days (fraction); higher = more cells survive
# [1] = system: NCI-H647
# Summary of the method: (§1)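 After 5 days of treatment, lung cancer cells in 1536-well plates were fixed and stained in a single step (final 0.05% Triton X-100, 1% formaldehyde, 1 ug/ml Hoechst) and their nuclei counted on 4× images. Treatment had been applied by pin tool the day after seeding as one drug alone or as a fixed anchor-drug dose with five library-drug doses (not always all listed) in √10 steps. Relative viability is the nuclei count of treated wells divided by that of vehicle wells, and values are medians of duplicate plates.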
# [2] = system: NCI-H2347
# Summary of the method: as §1
# [3] = system: HCC-78
# Summary of the method: as §1
# [4] = system: LOU-NH91
# Summary of the method: as §1
# [5] = system: LCLC-103H
# Summary of the method: as §1
# [6] = system: LXF-289
# Summary of the method: as §1
# [7] = system: NCI-H1793
# Summary of the method: as §1
# [8] = system: LCLC-97TM1
# Summary of the method: as §1
# [9] = system: NCI-H838
# Summary of the method: as §1
# [10] = system: PC-3 [JPC-3]
# Summary of the method: as §1
# [11] = system: RERF-LC-KJ
# Summary of the method: as §1
# [12] = system: HARA
# Summary of the method: as §1
# [13] = system: COR-L23
# Summary of the method: as §1
# [14] = system: LK-2
# Summary of the method: as §1
# [15] = system: A-427
# Summary of the method: as §1
# [16] = system: UMC-11
# Summary of the method: as §1
# [17] = system: NCI-H2405
# Summary of the method: as §1
# [18] = system: NCI-H520
# Summary of the method: as §1
# [19] = system: NCI-H1650
# Summary of the method: as §1
# [20] = system: NCI-H1651
# Summary of the method: as §1
# [21] = system: 201T
# Summary of the method: as §1
# [22] = system: NCI-H23
# Summary of the method: as §1
smiles,measurement,setting,value
CN1CCN(CCOc2cc(OC3CCOCC3)c3c(Nc4c(Cl)ccc5c4OCO5)ncnc3c2)CC1 [Saracatinib] + COc1cc2c(Oc3ccc(NC(=O)C4(C(=O)Nc5ccc(F)cc5)CC4)cc3F)ccnc2cc1OCCCN1CCOCC1 [Foretinib] (partner 0.25 µM),relative viability,[1]; first compound 0.02 µM,0.997
same,relative viability,[1]; first compound 0.2 µM,1.14
same,relative viability,[1]; first compound 0.6325 µM,1.04
same,relative viability,[1]; first compound 2 µM,1.12
same,relative viability,[2]; first compound 0.02 µM,1.32
same,relative viability,[2]; first compound 0.2 µM,0.852
same,relative viability,[2]; first compound 0.6325 µM,0.469
same,relative viability,[2]; first compound 2 µM,0.712
same,relative viability,[3]; first compound 0.02 µM,0.534
same,relative viability,[3]; first compound 0.6325 µM,0.678
same,relative viability,[3]; first compound 2 µM,0.413
same,relative viability,[4]; first compound 0.02 µM,0.867
same,relative viability,[4]; first compound 0.2 µM,0.661
same,relative viability,[4]; first compound 0.6325 µM,0.609
same,relative viability,[4]; first compound 2 µM,0.488
same,relative viability,[5]; first compound 0.02 µM,0.698
same,relative viability,[5]; first compound 0.2 µM,0.669
same,relative viability,[5]; first compound 0.6325 µM,0.742
same,relative viability,[5]; first compound 2 µM,0.572
same,relative viability,[6]; first compound 0.02 µM,0.922
same,relative viability,[6]; first compound 0.2 µM,0.748
same,relative viability,[6]; first compound 0.6325 µM,1.04
same,relative viability,[6]; first compound 2 µM,0.891
same,relative viability,[7]; first compound 0.02 µM,0.685
same,relative viability,[7]; first compound 0.6325 µM,0.777
same,relative viability,[7]; first compound 2 µM,0.454
same,relative viability,[8]; first compound 0.02 µM,1.06
same,relative viability,[8]; first compound 0.2 µM,0.763
same,relative viability,[8]; first compound 0.6325 µM,0.96
same,relative viability,[8]; first compound 2 µM,0.825
same,relative viability,[9]; first compound 0.02 µM,1.05
same,relative viability,[9]; first compound 0.2 µM,0.908
same,relative viability,[9]; first compound 0.6325 µM,0.938
same,relative viability,[9]; first compound 2 µM,0.916
same,relative viability,[10]; first compound 0.02 µM,1.04
same,relative viability,[10]; first compound 0.2 µM,0.889
same,relative viability,[10]; first compound 0.6325 µM,0.693
same,relative viability,[10]; first compound 2 µM,0.396
same,relative viability,[11]; first compound 0.02 µM,0.895
same,relative viability,[11]; first compound 0.2 µM,0.855
same,relative viability,[11]; first compound 0.6325 µM,0.917
same,relative viability,[11]; first compound 2 µM,0.877
same,relative viability,[12]; first compound 0.02 µM,0.873
same,relative viability,[12]; first compound 0.2 µM,0.751
same,relative viability,[12]; first compound 0.6325 µM,0.739
same,relative viability,[12]; first compound 2 µM,0.368
same,relative viability,[13]; first compound 0.02 µM,0.905
same,relative viability,[13]; first compound 0.2 µM,0.917
same,relative viability,[13]; first compound 0.6325 µM,0.87
same,relative viability,[13]; first compound 2 µM,0.886
same,relative viability,[14]; first compound 0.02 µM,0.997
same,relative viability,[14]; first compound 0.2 µM,1.09
same,relative viability,[14]; first compound 0.6325 µM,1.41
same,relative viability,[14]; first compound 2 µM,0.537
same,relative viability,[15]; first compound 0.02 µM,1.09
same,relative viability,[15]; first compound 0.2 µM,1.09
same,relative viability,[15]; first compound 0.6325 µM,1.07
same,relative viability,[15]; first compound 2 µM,0.99
same,relative viability,[16]; first compound 0.02 µM,0.977
same,relative viability,[16]; first compound 0.6325 µM,0.982
same,relative viability,[16]; first compound 2 µM,0.734
same,relative viability,[17]; first compound 0.02 µM,1.03
same,relative viability,[17]; first compound 0.2 µM,0.94
same,relative viability,[17]; first compound 0.6325 µM,0.98
same,relative viability,[17]; first compound 2 µM,0.658
same,relative viability,[18]; first compound 0.02 µM,0.761
same,relative viability,[18]; first compound 0.6325 µM,0.611
same,relative viability,[18]; first compound 2 µM,0.523
same,relative viability,[19]; first compound 0.02 µM,0.948
same,relative viability,[19]; first compound 0.2 µM,0.775
same,relative viability,[19]; first compound 0.6325 µM,0.46
same,relative viability,[19]; first compound 2 µM,0.456
same,relative viability,[20]; first compound 0.02 µM,0.844
same,relative viability,[20]; first compound 0.2 µM,0.561
same,relative viability,[20]; first compound 0.6325 µM,0.908
same,relative viability,[20]; first compound 2 µM,0.657
same,relative viability,[21]; first compound 0.02 µM,1.16
same,relative viability,[21]; first compound 0.2 µM,0.752
same,relative viability,[21]; first compound 0.6325 µM,1
same,relative viability,[21]; first compound 2 µM,0.693
same,relative viability,[22]; first compound 0.02 µM,0.825
same,relative viability,[22]; first compound 0.2 µM,0.815
same,relative viability,[22]; first compound 0.6325 µM,1
same,relative viability,[22]; first compound 2 µM,0.545
